Laboratory results reported in patent US5238930A, “Alkenoic acid compounds for mechanism-based inactivation of dehydropeptidase activity” (Board of Governors of Wayne State University, priority 1992, dated 1993).
Entries after “also recorded” stand apart in the source; their conditions may differ.

T1: porcine dehydropeptidase I (Sus scrofa, UniProt P22412)
T1 construct: Renal dipeptidase from porcine kidney was purified by a slight modification of the literature report; from tissue; host or cells: porcine kidney
T1 sequence (P22412 17-409): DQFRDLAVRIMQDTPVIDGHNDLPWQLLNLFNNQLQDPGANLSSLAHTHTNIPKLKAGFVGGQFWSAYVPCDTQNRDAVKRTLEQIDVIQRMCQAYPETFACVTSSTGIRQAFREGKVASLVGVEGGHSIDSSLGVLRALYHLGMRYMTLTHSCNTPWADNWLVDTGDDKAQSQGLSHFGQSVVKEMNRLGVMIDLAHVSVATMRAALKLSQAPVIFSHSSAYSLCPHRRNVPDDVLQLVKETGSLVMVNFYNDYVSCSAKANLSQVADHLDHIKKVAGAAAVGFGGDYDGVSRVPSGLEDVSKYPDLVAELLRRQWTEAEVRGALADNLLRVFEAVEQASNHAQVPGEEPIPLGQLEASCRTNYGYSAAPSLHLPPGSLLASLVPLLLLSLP


Tests used:
Test in all cases: Kinetic analysis of interaction (turnover and inactivation) with porcine renal dipeptidase (dehydropeptidase I)
Format in all cases: biochemical
[1] = molecular target: T1, porcine dehydropeptidase I; details: for kinact: read-out: kinact (first-order rate constant for inactivation) (converted); for Ki: renal dipeptidase assay with glycinyldehydrophenylalanine as substrate, read-out: Ki (reversible inhibitor constant for the formation of the EI complex)
Excerpt: (§1) Km is the Michaelis […] for the turnover, and Ki is the reversible inhibitor constant for the formation of the EI complex. The parameters Kcat and Kinact are first-order rate constant for enzymic turnover and inactivation, respectively. The partition ratio is defined as kcat divided by kinact (i.e., kcat/ kinact).
(§2) Renal dipeptidase from porcine kidney was purified by a slight modification of the literature report (Biochem. J. 257, 361 (1989)). The spectrophotometric assay of renal dipeptidase is carried out according to the method of Campbell et al. (Methods Enzymol. 19, 722 (1970)), using glycinyldehydrophenylalanine as substrate. The substrate was synthesized according to the literature report (Synthesis Commun., 234 (1982)).
(§3) The relevant kinetic parameters for interactions of I and III with porcine dehydropeptidase I are given below.

[2] = substrate: C=C(CC(=O)CC#N)C(=O)O; details: other: turnover of compound by porcine dehydropeptidase I
Excerpt: as §1, §2, §3

[3] = substrate: C=C(NC(=O)CC#N)C(=O)O; details: other: turnover of compound by porcine dehydropeptidase I
Excerpt: as §1, §2, §3

kcat/kinact (partition ratio) ([1]; porcine dehydropeptidase I, kcat divided by kinact) | kinact ([1]; porcine dehydropeptidase I) [s⁻¹] | Ki ([1]; porcine dehydropeptidase I) [µM] | Molecule | inactivation of dehydropeptidase, overall result in words ([1]; conclusion from the kinetic table) | Km [2] [mM] | Km [3] [mM]
217 ± 37 | 0.00252 | 38 ± 1 | C=C(CC(=O)CC#N)C(=O)O [I, 2-Methnylene-5-Cyano-4-Oxopentanoic Acid] | very effective inactivators; also recorded: somewhat better than the ketonic compound (I) | – | –
– | 0.00462 | 18 ± 6 | C=C(NC(=O)CC#N)C(=O)O [III, 2-Cyanoacetamidoacrylic Acid] | – | – | –
– | – | – | porcine dehydropeptidase I (Sus scrofa) (protein, Renal dipeptidase from porcine kidney was purified by a slight modification of the literature report; from tissue; host or cells: porcine kidney) DQFRDLAVRIMQDTPVIDGHNDLPWQLLNLFNNQLQDPGANLSSLAHTHTNIPKLKAGFVGGQFWSAYVPCDTQNRDAVKRTLEQIDVIQRMCQAYPETFACVTSSTGIRQAFREGKVASLVGVEGGHSIDSSLGVLRALYHLGMRYMTLTHSCNTPWADNWLVDTGDDKAQSQGLSHFGQSVVKEMNRLGVMIDLAHVSVATMRAALKLSQAPVIFSHSSAYSLCPHRRNVPDDVLQLVKETGSLVMVNFYNDYVSCSAKANLSQVADHLDHIKKVAGAAAVGFGGDYDGVSRVPSGLEDVSKYPDLVAELLRRQWTEAEVRGALADNLLRVFEAVEQASNHAQVPGEEPIPLGQLEASCRTNYGYSAAPSLHLPPGSLLASLVPLLLLSLP | – | 10.3 | 0.416
